Activity calls are given as the source filed them. No cut-off for these calls is given here.
Key:
[1] = molecular target: CREB-binding protein (Homo sapiens, UniProt Q92793); assay: Inhibition of CBP (unknown origin) by radiometric assay
[2] = molecular target: T1, Protein cereblon/CREB-binding protein (Homo sapiens, UniProt Q92793+Q96SW2); assay: Protac activity at CRBN/CBP in human LP-1 cells assessed as protein remaining at 5 uM after 16 hrs by Western blotting analysis; type: cell-based
[3] = molecular target: T2, Protein cereblon/Histone acetyltransferase p300 (Homo sapiens) (UniProt Q09472+Q96SW2); assay: Protac activity at CRBN/EP300 in human LP-1 cells assessed as protein remaining at 5 uM after 16 hrs by Western blotting analysis; type: cell-based
T2 sequence (Q09472 2-2414 limits assumed): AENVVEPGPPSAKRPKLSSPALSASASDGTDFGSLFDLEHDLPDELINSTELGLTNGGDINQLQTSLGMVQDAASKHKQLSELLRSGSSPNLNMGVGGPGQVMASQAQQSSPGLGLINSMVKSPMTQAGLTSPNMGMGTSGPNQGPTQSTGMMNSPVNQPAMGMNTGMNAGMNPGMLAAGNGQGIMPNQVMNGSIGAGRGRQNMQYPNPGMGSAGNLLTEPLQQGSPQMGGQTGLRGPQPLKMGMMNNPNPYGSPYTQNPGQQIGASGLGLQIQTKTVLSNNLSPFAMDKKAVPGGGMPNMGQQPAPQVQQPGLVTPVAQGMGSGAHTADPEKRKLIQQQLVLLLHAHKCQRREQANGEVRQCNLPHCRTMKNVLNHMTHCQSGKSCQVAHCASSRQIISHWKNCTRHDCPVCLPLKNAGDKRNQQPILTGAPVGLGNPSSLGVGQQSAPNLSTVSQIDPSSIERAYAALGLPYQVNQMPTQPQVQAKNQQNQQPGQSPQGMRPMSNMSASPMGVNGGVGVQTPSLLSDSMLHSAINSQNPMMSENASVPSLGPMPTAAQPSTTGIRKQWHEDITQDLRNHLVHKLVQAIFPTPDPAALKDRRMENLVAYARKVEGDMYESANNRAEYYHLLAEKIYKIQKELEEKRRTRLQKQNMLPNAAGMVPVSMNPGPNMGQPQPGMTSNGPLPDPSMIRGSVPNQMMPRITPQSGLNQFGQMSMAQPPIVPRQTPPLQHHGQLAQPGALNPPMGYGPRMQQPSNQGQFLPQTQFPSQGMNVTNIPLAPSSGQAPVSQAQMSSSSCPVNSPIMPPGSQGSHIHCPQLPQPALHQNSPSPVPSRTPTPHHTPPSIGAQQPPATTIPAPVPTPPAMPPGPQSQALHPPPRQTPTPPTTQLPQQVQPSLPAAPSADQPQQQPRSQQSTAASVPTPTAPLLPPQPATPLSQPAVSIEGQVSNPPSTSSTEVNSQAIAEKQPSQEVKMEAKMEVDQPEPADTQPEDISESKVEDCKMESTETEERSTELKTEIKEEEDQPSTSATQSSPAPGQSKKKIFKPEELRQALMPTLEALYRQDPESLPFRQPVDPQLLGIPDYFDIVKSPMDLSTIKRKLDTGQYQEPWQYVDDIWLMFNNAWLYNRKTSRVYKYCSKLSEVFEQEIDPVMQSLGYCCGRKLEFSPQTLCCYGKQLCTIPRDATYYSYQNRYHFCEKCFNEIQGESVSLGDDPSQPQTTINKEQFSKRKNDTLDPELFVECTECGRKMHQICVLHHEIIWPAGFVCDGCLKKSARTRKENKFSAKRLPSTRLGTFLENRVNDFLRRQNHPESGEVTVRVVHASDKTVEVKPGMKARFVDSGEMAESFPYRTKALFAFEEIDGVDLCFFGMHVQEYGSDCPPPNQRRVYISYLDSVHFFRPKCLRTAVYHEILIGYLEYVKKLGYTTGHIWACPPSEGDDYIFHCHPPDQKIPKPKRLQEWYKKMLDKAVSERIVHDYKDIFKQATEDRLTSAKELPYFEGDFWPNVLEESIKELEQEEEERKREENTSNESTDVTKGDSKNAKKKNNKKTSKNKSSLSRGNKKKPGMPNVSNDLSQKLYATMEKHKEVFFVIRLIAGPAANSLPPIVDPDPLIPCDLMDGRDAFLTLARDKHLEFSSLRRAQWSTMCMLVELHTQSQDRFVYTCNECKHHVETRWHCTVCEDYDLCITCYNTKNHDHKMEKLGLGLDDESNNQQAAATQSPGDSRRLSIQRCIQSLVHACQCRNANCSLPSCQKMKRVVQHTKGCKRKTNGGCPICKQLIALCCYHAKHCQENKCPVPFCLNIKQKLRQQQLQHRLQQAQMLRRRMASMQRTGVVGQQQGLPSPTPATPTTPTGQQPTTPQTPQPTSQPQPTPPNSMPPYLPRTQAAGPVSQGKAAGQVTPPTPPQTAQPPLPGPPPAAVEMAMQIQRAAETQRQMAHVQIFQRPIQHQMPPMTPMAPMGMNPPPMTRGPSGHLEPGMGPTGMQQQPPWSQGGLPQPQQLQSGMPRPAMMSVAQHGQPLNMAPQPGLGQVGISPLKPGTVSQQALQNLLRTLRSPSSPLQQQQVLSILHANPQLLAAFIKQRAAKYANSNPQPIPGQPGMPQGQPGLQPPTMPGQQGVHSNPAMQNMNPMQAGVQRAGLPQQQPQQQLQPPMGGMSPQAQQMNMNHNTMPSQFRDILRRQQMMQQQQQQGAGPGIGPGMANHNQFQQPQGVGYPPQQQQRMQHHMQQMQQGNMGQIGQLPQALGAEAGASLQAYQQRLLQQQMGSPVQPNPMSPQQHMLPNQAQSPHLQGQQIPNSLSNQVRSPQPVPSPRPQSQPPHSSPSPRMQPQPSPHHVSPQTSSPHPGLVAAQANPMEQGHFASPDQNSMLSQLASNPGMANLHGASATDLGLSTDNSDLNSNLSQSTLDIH
T2 sequence (Q96SW2 whole entry partner): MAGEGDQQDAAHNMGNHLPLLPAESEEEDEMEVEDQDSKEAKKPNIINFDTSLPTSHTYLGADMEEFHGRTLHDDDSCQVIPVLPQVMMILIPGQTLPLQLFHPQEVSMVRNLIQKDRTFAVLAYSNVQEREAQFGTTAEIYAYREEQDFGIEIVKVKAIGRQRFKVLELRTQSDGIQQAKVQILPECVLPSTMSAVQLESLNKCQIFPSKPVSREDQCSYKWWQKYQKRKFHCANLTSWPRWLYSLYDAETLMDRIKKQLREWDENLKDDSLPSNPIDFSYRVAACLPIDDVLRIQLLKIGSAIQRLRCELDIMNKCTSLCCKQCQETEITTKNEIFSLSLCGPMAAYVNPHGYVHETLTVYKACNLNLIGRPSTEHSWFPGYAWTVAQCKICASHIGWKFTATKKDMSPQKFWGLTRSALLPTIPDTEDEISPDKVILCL

[4] = tested on: LP-1; assay: Antiproliferative activity against human LP-1 cells assessed as growth inhibition incubated for 3 days by fluorescence based assay; type: functional; details: LP-1, 72 h, time 3 day
[5] = tested on: LP-1; assay: Protac activity at IAP/EP300 in human LP-1 cells assessed as protein remaining at 5 uM after 16 hrs by Western blotting analysis; type: cell-based
[6] = tested on: LP-1; assay: Protac activity at IAP/CBP in human LP-1 cells assessed as protein remaining at 5 uM after 16 hrs by Western blotting analysis; type: cell-based
[7] = molecular target: von Hippel-Lindau disease tumor suppressor/Histone acetyltransferase p300 (Homo sapiens) (UniProt Q09472+P40337); assay: Protac activity at VHL/EP300 in human LP-1 cells assessed as protein remaining at 5 uM after 16 hrs by Western blotting analysis; type: cell-based
[8] = molecular target: von Hippel-Lindau disease tumor suppressor/CREB-binding protein (Homo sapiens) (UniProt Q92793+P40337); assay: Protac activity at VHL/CBP in human LP-1 cells assessed as protein remaining at 5 uM after 16 hrs by Western blotting analysis; type: cell-based
[9] = molecular target: T1, Protein cereblon/CREB-binding protein; assay: Protac activity at CRBN/CBP degradation in human LP-1 cells assessed as induction of ternary complex formation by measuring fluorescent foci at 2 uM after 6 hrs by fluorescence microscopic analysis; type: cell-based
[10] = tested on: SR; assay: Antiproliferative activity against human SR cells; type: functional, cell-based
[11] = tested on: RPMI-8226; assay: Antiproliferative activity against human RPMI-8226 cells; type: functional, cell-based
[12] = molecular target: T1, Protein cereblon/CREB-binding protein; assay: Protac activity at CRBN/CBP degradation in human LP-1 cells at 5 uM preincubated with CPI-1612 for 1 hr followed by compound addition and measured after 16 hrs by Western blotting analysis; type: cell-based
[13] = molecular target: T1, Protein cereblon/CREB-binding protein; assay: Protac activity at CRBN/CBP in human LP-1 cells at 5 uM after 8 to 48 hrs by Western blotting analysis; type: cell-based; details: time 8-48 hrs
[14] = molecular target: T1, Protein cereblon/CREB-binding protein; assay: Protac activity at CRBN/CBP degradation in human LP-1 cells at 5 uM preincubated with pomalidomide for 1 hr followed by compound addition and measured after 16 hrs by Western blotting analysis; type: cell-based
[15] = molecular target: T1, Protein cereblon/CREB-binding protein; assay: Protac activity at CRBN/CBP degradation in human LP-1 cells at 5 uM preincubated with MG-132 for 1 hr followed by compound addition and measured after 16 hrs by Western blotting analysis; type: cell-based
[16] = tested on: MOLT-4; assay: Antiproliferative activity against human MOLT-4 cells; type: functional, cell-based
[17] = molecular target: T1, Protein cereblon/CREB-binding protein; assay: Protac activity at CRBN/CBP in human MM1.S cells at 5 uM after 16 hrs by Western blotting analysis; type: cell-based
[18] = tested on: K562; assay: Antiproliferative activity against human K562 cells; type: functional, cell-based
[19] = tested on: HL-60(TB); assay: Antiproliferative activity against human HL-60(TB) cells; type: functional, cell-based
[20] = tested on: CCRF-CEM; assay: Antiproliferative activity against human CCRF-CEM cells; type: functional, cell-based
[21] = molecular target: T1, Protein cereblon/CREB-binding protein; assay: Protac activity at CRBN/CBP in human LP-1 cells after 16 hrs by Western blotting analysis; type: cell-based
[22] = molecular target: T2, Protein cereblon/Histone acetyltransferase p300 (Homo sapiens); assay: Protac activity at CRBN/EP300 in human MM1.S cells at 5 uM after 16 hrs by Western blotting analysis; type: cell-based
[23] = molecular target: T2, Protein cereblon/Histone acetyltransferase p300 (Homo sapiens); assay: Protac activity at CRBN/EP300 in human LP-1 cells at 5 uM after 16 hrs by Western blotting analysis; type: cell-based
[24] = molecular target: T1, Protein cereblon/CREB-binding protein; assay: Protac activity at CRBN/CBP in human LP-1 cells at 5 uM after 16 hrs by Western blotting analysis; type: cell-based

Compound `CCOCCNC(=O)CCn1cc(-c2ccc(NC(=O)C(NCC(C)c3ccc(C#N)cc3)c3ccccc3)nc2)cn1` (configuration not stated) has an IC50 [1] of 1870 nM.

For `C[C@H](CN[C@@H](C(=O)Nc1ccc(-c2cnn(CCCC(=O)NCCOCCOCCOCCOCCNc3cccc4c3C(=O)N(C3CCC(=O)NC3=O)C4=O)c2)cn1)c1ccccc1)c1ccc(C#N)cc1` (some centres not stated), the Activity [2] was “Active” and the Activity [3] was “Active”.

In the case of `CN[C@@H](C)C(=O)N[C@H](C(=O)N1C[C@@H](NC(=O)CCOCCOCCNC(=O)CCCn2cc(-c3ccc(NC(=O)[C@H](NC[C@@H](C)c4ccc(C#N)cc4)c4ccccc4)nc3)cn2)C[C@H]1C(=O)Nc1c(F)cccc1F)C(C)(C)C`, the GI50 [4] is reported as over 10000 nM, the Activity [5] is reported as 93% and the Activity [6] is reported as 87%.

For `Nc1cccc2c1C(=O)N(C1CCC(=O)NC1=O)C2=O` (configuration not stated) [POMALIDOMIDE], the GI50 [4] was over 10000 nM.

With `C[C@H](CN[C@@H](C(=O)Nc1ccc(-c2cnn(CCCC(=O)NCCCCCCCCNc3ccc4c(c3)C(=O)N(C3CCC(=O)NC3=O)C4=O)c2)cn1)c1ccccc1)c1ccc(C#N)cc1` (some centres not stated) the GI50 [4] was 260 nM, the Activity [2] was over 95% and the Activity [3] was 95%.

In the case of `Cc1ncsc1-c1ccc(CNC(=O)[C@@H]2C[C@@H](O)CN2C(=O)[C@@H](NC(=O)CCCCCCCNC(=O)CCCn2cc(-c3ccc(NC(=O)[C@H](NC[C@@H](C)c4ccc(C#N)cc4)c4ccccc4)nc3)cn2)C(C)(C)C)cc1`, the GI50 [4] is reported as 4700 nM, the Activity [7] is reported as over 95% and the Activity [8] is reported as over 95%.

Compound `CN[C@@H](C)C(=O)N[C@H](C(=O)N1C[C@@H](NC(=O)CCCCCCCNC(=O)CCCn2cc(-c3ccc(NC(=O)[C@H](NC[C@@H](C)c4ccc(C#N)cc4)c4ccccc4)nc3)cn2)C[C@H]1C(=O)Nc1c(F)cccc1F)C(C)(C)C` has a GI50 [4] of 2300 nM, an Activity [5] of over 95% and an Activity [6] of over 95%.

For `Cc1ncsc1-c1ccc(CNC(=O)[C@H]2C[C@H](O)CN2C(=O)[C@H](NC(=O)CCOCCOCCOCCNC(=O)CCCn2cc(-c3ccc(NC(=O)[C@H](NC[C@@H](C)c4ccc(C#N)cc4)c4ccccc4)nc3)cn2)C(C)(C)C)cc1`, the GI50 [4] was 2200 nM, the Activity [7] was 89% and the Activity [8] was over 95%.

`COCCNC(=O)CCCCn1cc(-c2ccc(NC(=O)C(NCC(C)c3ccc(C#N)cc3)c3ccccc3)nc2)cn1` (configuration not stated) was tested, and the IC50 [1] was 819 nM.

`C[C@H](CN[C@@H](C(=O)Nc1ccc(-c2cnn(CCCC(=O)NCCOCCOCCOCCOCCOCCOCCNc3cccc4c3C(=O)N(C3CCC(=O)N(C)C3=O)C4=O)c2)cn1)c1ccccc1)c1ccc(C#N)cc1` (some centres not stated) was tested, and the Activity [9] was “inactive”.

In the case of `C[C@H](CN[C@@H](C(=O)Nc1ccc(-c2cnn(CCCC(=O)NCCOCCOCCOCCOCCOCCNc3cccc4c3C(=O)N(C3CCC(=O)NC3=O)C4=O)c2)cn1)c1ccccc1)c1ccc(C#N)cc1` (some centres not stated), the Activity [2] is reported as “Active” and the Activity [3] is reported as “Active”.

`C[C@H](CN[C@@H](C(=O)Nc1ccc(-c2cnn(CCCC(=O)NCCOCCOCCOCCOCCOCCOCCNc3cccc4c3C(=O)N(C3CCC(=O)NC3=O)C4=O)c2)cn1)c1ccccc1)c1ccc(C#N)cc1` (some centres not stated) was tested, and the Activity [10] was “Active”, the Activity [2] was “Active” and the Activity [11] was “Active”. The Activity [12] was “Active”, the Activity [13] was “Active” and the Activity [14] was “Active”. The EC50 [9] was 1200 nM, the Activity [15] was “Active” and the Activity [16] was “Active”. For the same compound, the Activity [17] was “Active”, the Activity [18] was “Active” and the Activity [19] was “Active”. For the same compound, the Activity [20] was “Active”, the EC50 [21] was 1300 nM and the Activity [3] was “Active”.

`C[C@H](CN[C@@H](C(=O)Nc1ccc(-c2cnn(CCCC(=O)NCCOCCOCCOCCOCCOCCOCCOCCNc3cccc4c3C(=O)N(C3CCC(=O)NC3=O)C4=O)c2)cn1)c1ccccc1)c1ccc(C#N)cc1` (some centres not stated) was tested, and the Activity [2] was “Active” and the Activity [3] was “Active”.

In the case of `C[C@H](CN[C@@H](C(=O)Nc1ccc(-c2cnn(C)c2)cn1)c1ccccc1)c1ccc(C#N)cc1`, the GI50 [4] is reported as 5 nM and the IC50 [1] is reported as 116 nM.

`Cc1ncsc1-c1ccc(CNC(=O)[C@@H]2C[C@@H](O)CN2C(=O)[C@@H](NC(=O)COCCOCCNC(=O)CCCn2cc(-c3ccc(NC(=O)[C@H](NC[C@@H](C)c4ccc(C#N)cc4)c4ccccc4)nc3)cn2)C(C)(C)C)cc1` gave a GI50 [4] of 1000 nM, an Activity [7] of over 95% and an Activity [8] of over 95%.

Work on `C[C@H](CN[C@@H](C(=O)Nc1ccc(-c2cnn(CCCC(=O)NCCOCCOCCOCCNc3cccc4c3C(=O)N(C3CCC(=O)NC3=O)C4=O)c2)cn1)c1ccccc1)c1ccc(C#N)cc1` (some centres not stated) yielded a GI50 [4] of 500 nM, an Activity [2] of over 95% and an Activity [3] of 76%.

Compound `CN[C@@H](C)C(=O)N[C@H](C(=O)N1C[C@@H](NC(=O)CCOCCOCCOCCNC(=O)CCCn2cc(-c3ccc(NC(=O)[C@H](NC[C@@H](C)c4ccc(C#N)cc4)c4ccccc4)nc3)cn2)C[C@H]1C(=O)Nc1c(F)cccc1F)C(C)(C)C` has a GI50 [4] of 500 nM, an Activity [5] of over 95% and an Activity [6] of over 95%.

For `CCOCCNC(=O)CCCn1cc(-c2ccc(NC(=O)C(NCC(C)c3ccc(C#N)cc3)c3ccccc3)nc2)cn1` (configuration not stated), the IC50 [1] was 1010 nM.

`C[C@H](N(Cc1ccc(F)cc1)C(=O)CN1C(=O)O[C@@]2(CCc3cc(NC(=O)CCCCCCCCCCCNc4ccc5c(c4)C(=O)N(C4CCC(=O)NC4=O)C5=O)ccc32)C1=O)C(F)(F)F` (some centres not stated) was tested, and the Activity [22] was “inactive”, the Activity [23] was “inactive” and the Activity [24] was “inactive”. The Activity [17] was “inactive”.

In the case of `C[C@H](CN[C@@H](C(=O)Nc1ccc(-c2cnn(CCCC(=O)NCCOCCOCCNc3cccc4c3C(=O)N(C3CCC(=O)NC3=O)C4=O)c2)cn1)c1ccccc1)c1ccc(C#N)cc1` (some centres not stated), the GI50 [4] is reported as 330 nM, the Activity [2] is reported as over 95% and the Activity [3] is reported as 79%.

`C[C@H](CN[C@@H](C(=O)Nc1ccc(-c2cnn(CCCC(=O)NCCCCCCCCNc3cccc4c3C(=O)N(C3CCC(=O)NC3=O)C4=O)c2)cn1)c1ccccc1)c1ccc(C#N)cc1` (some centres not stated) was tested, and the GI50 [4] was 470 nM, the Activity [2] was 87% and the Activity [3] was 79%.

— ChEMBL document CHEMBL5344455, “Discovery and Characterization of Active CBP/EP300 Degraders Targeting the HAT Domain” (ACS Med Chem Lett, 2024)
